Data on 18 compounds can be found in ChEMBL document CHEMBL3861993, “Alternative core development around the tetracyclic indole class of HCV NS5A inhibitors” (Bioorg Med Chem Lett, 2016).

Data set [1] has as its system Hepatitis C virus subtype 2b. The experiment in a line: Inhibition of HCV genotype 2b NS5A harboring methionine at position 31 after 3 day incubation by RT-PCR-cell-based HCV replicon assay.
The test system of data set [2] is Nonstructural protein 5A (Hepatitis C virus), Q5L478 [UNDEFINED MUTATION]. Kind of data set: Inhibition of HCV genotype 1a NS5A L31V mutant after 3 day incubation by RT-PCR-cell-based HCV replicon assay. Conditions: Hepatitis C virus subtype 1a.
The test system of data set [3] is Hepatitis C virus subtype 4a. Kind of data set: Inhibition of HCV genotype 4a NS5A after 3 day incubation by RT-PCR-cell-based HCV replicon assay.
The test system of data set [4] is T1, Nonstructural protein 5A (Hepatitis C virus), Q5L478 [Y93H].
T1 sequence (whole entry): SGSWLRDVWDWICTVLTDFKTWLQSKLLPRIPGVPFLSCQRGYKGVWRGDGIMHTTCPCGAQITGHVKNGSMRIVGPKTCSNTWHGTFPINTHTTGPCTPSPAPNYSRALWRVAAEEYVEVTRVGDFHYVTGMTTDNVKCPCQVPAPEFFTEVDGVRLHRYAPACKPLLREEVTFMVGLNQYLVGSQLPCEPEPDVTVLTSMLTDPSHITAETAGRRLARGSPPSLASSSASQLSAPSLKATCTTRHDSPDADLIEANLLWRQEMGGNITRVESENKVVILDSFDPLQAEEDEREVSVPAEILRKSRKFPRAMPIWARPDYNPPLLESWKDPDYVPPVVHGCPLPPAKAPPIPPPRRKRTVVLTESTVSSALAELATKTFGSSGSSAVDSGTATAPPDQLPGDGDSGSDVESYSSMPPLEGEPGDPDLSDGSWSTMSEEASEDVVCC
Kind of data set: Inhibition of HCV genotype 1a NS5A Y93H mutant after 3 day incubation by RT-PCR-cell-based HCV replicon assay. Conditions: Hepatitis C virus subtype 1a. On the technique in general: In antiviral work, replicon cells carry a viral genome segment that copies itself.

Data set [5] relates to Hepatitis C virus subtype 1a. The experiment in a line: Inhibition of HCV genotype 1a NS5A after 3 day incubation by RT-PCR-cell-based HCV replicon assay.
The subject of data set [6] is Hepatitis C virus subtype 3a. Kind of data set: Inhibition of HCV genotype 3a NS5A after 3 day incubation by RT-PCR-cell-based HCV replicon assay.
Data set [7] is described as follows: Oral bioavailability in rat at 5 mg/kg. In kind it is ADME, organism-based. Conditions: in vivo.
Data set [8] can be described thus: Cmax in rat at 2.5 mg/kg, iv or 5 mg/kg, po. Conditions: in vivo. In kind it is ADME, organism-based.
Data set [9] is described as follows: Half life in rat at 2.5 mg/kg, iv or 5 mg/kg, po. In kind it is ADME, organism-based. The following applies: in vivo.
Data set [10] in a line: Clearance in rat at 2.5 mg/kg, iv or 5 mg/kg, po. The following applies: in vivo. In kind it is ADME, organism-based.
Data set [11] can be described thus: AUC in rat at 5 mg/kg, po. In kind it is ADME, organism-based. Conditions: in vivo.
Data set [12] in a line: AUC in rat at 3 mg/kg, iv or 10 mg/kg, po. In kind it is ADME, organism-based. Conditions: in vivo.
Data set [13] in a line: Oral bioavailability in rat at 10 mg/kg. In kind it is ADME, organism-based. The following applies: in vivo.
The nature of data set [14]: Clearance in rat at 2 mg/kg, iv or 10 mg/kg, po. In kind it is ADME, organism-based. Conditions: in vivo.
Data set [15] is described as follows: Cmax in rat at 2 mg/kg, iv or 10 mg/kg, po. The format is ADME, organism-based. The following applies: in vivo.
Data set [16] is described as follows: AUC in rat at 10 mg/kg, po. In kind it is ADME, organism-based. Conditions: in vivo.
Data set [17] can be described thus: Half life in rat at 2 mg/kg, iv or 10 mg/kg, po. In kind it is ADME, organism-based. Conditions: in vivo.

Molecules are shown by their SMILES.

In general, EC90 refers to the point of the concentration-response curve where the effect stands at 90%. For `COC(=O)N[C@H](C(=O)N1CCC[C@H]1c1ncc(-c2ccc3c(c2)OC(c2ccccc2)C2=C3COc3cc(-c4cnc([C@@H]5CCCN5C(=O)[C@@H](NC(=O)OC)C(C)C)[nH]4)ccc32)[nH]1)C(C)C` (stereo not given in full), the EC90 in [1] is 8.46 nM; in [2] it was 0.28 nM; in data set [3] it was 0.17 nM; in [4], more than 100 nM; in data set [5], 0.017 nM; in [6] it was 0.56 nM.

For the compound `COC(=O)N[C@H](C(=O)N1CCC[C@H]1c1nc(-c2ccc3c(c2)O[C@@H](c2ccccc2)n2c-3cc3cc(-c4c[nH]c([C@@H]5CCCN5C(=O)[C@@H](NC(=O)OC)C(C)C)n4)ccc32)c[nH]1)C(C)C`, the EC90 was found to be 11 nM in [1], 0.016 nM in data set [3], 0.006 nM in [5] and 0.12 nM in [6].

As for `COC(=O)N[C@H](C(=O)N1CCC[C@H]1c1ncc(-c2ccc3c(c2)Oc2ccc(-c4cnc([C@@H]5CCCN5C(=O)[C@@H](NC(=O)OC)C(C)C)[nH]4)c4c2N3CCO4)[nH]1)C(C)C`, the EC90 in [1] is 100 nM; in data set [2], 100 nM; in data set [3], 2.48 nM; in data set [4], 361 nM; in data set [5], 0.005 nM; in [6] it was 4.69 nM.

On to `COC(=O)N[C@H](C(=O)N1CCC[C@H]1c1ncc(-c2ccc3c(c2)OC(C2CC2)C2=C3COc3cc(-c4cnc([C@@H]5CCCN5C(=O)[C@@H](NC(=O)OC)C(C)C)[nH]4)ccc32)[nH]1)C(C)C` (stereo not given in full), for which the EC90 is 5.2 nM in [1]; 1.7 nM in [2]; 41 nM in data set [4]; 0.063 nM in [5]; 10.7 nM in [6].

For `COC(=O)N[C@H](C(=O)N1CCC[C@H]1c1ncc(-c2ccc3c(c2)Oc2ccc(-c4cnc([C@@H]5CCCN5C(=O)[C@@H](NC(=O)OC)C(C)C)[nH]4)c4c2N3CC4)[nH]1)C(C)C`, the 90% effect concentration (EC90) in data set [2] is 100 nM; in data set [3] it was 8.17 nM; in data set [4], 685 nM; in data set [5], more than 0.1 nM; in [6] it was 4.42 nM.

Consider `COC(=O)N[C@H](C(=O)N1CCC[C@H]1c1ncc(-c2cc3c4c(c2)CCc2cc(-c5cnc([C@@H]6C[C@@H](F)CN6C(=O)[C@@H](NC(=O)OC)C(C)C)[nH]5)cc(c2-4)CC3)[nH]1)C(C)C`, for which the EC90 in data set [1] is more than 100 nM; in data set [2] it was 26.2 nM; in data set [3] it was 5.5 nM; in data set [4], 22.7 nM; in [5], 0.052 nM; in data set [6] it was 6 nM.

As to `COC(=O)N[C@H](C(=O)N1CCC[C@H]1c1ncc(-c2ccc3c(c2)Oc2ccc(-c4cnc([C@@H]5CCCN5C(=O)[C@@H](NC(=O)OC)C(C)C)[nH]4)c4c2N3CCC4)[nH]1)C(C)C`, the EC90 is 100 nM in [1]; 100 nM in data set [2]; 4.81 nM in data set [3]; 441 nM in data set [4]; more than 0.1 nM in data set [5]; more than 10 nM in [6].

`COC(=O)N[C@H](C(=O)N1CCC[C@H]1c1ncc(-c2ccc3c(c2)OC(C)C2=C3COc3cc(-c4cnc([C@@H]5CCCN5C(=O)[C@@H](NC(=O)OC)C(C)C)[nH]4)ccc32)[nH]1)C(C)C` (stereo not given in full): the EC90 in data set [1] is 28.1 nM; in [2] it was 1.52 nM; in data set [4] it was 55.1 nM; in data set [5], 0.028 nM.

With `COC(=O)N[C@H](C(=O)N1CCC[C@H]1c1ncc(-c2ccc3c(c2)OC(c2cccc(OC)c2)C2=C3COc3cc(-c4cnc([C@@H]5CCCN5C(=O)[C@@H](NC(=O)OC)C(C)C)[nH]4)ccc32)[nH]1)C(C)C` (stereo not given in full), the EC90 in data set [1] was 4.7 nM; in data set [2], 0.3 nM; in data set [4] it was 12 nM; in data set [5], 0.039 nM; in data set [6], 1.93 nM.

As for `COC(=O)N[C@H](C(=O)N1CCC[C@H]1c1ncc(-c2cc3c4c(c2)CCc2cc(-c5cnc([C@@H]6CC(F)(F)CN6C(=O)[C@@H](NC(=O)OC)C(C)C)[nH]5)cc(c2-4)CC3)[nH]1)C(C)C`, the EC90 is more than 100 nM in data set [1]; 20.7 nM in [2]; 0.6 nM in data set [3]; 30.2 nM in data set [4]; 0.07 nM in [5]; more than 10 nM in [6].

The term bioavailability denotes the share of a dose that reaches the circulation, judged against a reference dose that is usually intravenous. Low readings indicate little systemic uptake, high ones much systemic uptake. The Cmax is the highest concentration seen after dosing. By half-life is commonly meant the time needed for the level to fall by half in the phase considered. Lower therefore signals rapid decline. By AUC is commonly meant concentration integrated over time. The low end stands for less exposure, the high end for more exposure. Regarding `COC(=O)N[C@H](C(=O)N1CCC[C@H]1c1ncc(-c2ccc3c(c2)Oc2ccc(-c4cnc([C@@H]5CCCN5C(=O)[C@@H](NC(=O)OC)C(C)C)[nH]4)c4occ-3c24)[nH]1)C(C)C`, the bioavailability in data set [7] is 34%. The same compound returned a Cmax in data set [8] of 830 nM. In addition, the EC90 in [1] was 100 nM; in data set [2], 100 nM; in data set [3], 0.31 nM; in data set [4], 132 nM; in data set [5], 0.03 nM; in data set [6], 0.32 nM. Further, the half-life in [9] is 1.9 h. Further, the clearance in [10] turned out to be 8.5 mL/min/kg. Besides, the AUC in [11] is 4.28 µM·h.

Regarding `COC(=O)N[C@H](C(=O)N1CCC[C@H]1c1ncc(-c2ccc3c(c2)OCc2c-3c(=O)oc3cc(-c4cnc([C@@H]5CCCN5C(=O)[C@@H](NC(=O)OC)C(C)C)[nH]4)ccc23)[nH]1)C(C)C`, the 90% effect concentration (EC90) in [1] was 113 nM; in [2], 58.6 nM; in data set [3], 0.18 nM; in data set [4], more than 50 nM; in data set [5], 0.01 nM; in [6], more than 1 nM.

Consider `COC(=O)N[C@H](C(=O)N1CCC[C@H]1c1ncc(-c2ccc3c(c2)Oc2ccc(-c4cnc([C@@H]5CCCN5C(=O)[C@@H](NC(=O)OC)C(C)C)[nH]4)c4cnn-3c24)[nH]1)C(C)C`, for which the EC90 amounted to 100 nM in [1]; 62.3 nM in data set [2]; 0.76 nM in data set [3]; 124 nM in data set [4]; 0.04 nM in data set [5]; 1.59 nM in data set [6].

As to `COC(=O)N[C@H](C(=O)N1CCC[C@H]1c1ncc(-c2ccc3c(c2)Oc2ccc(-c4cnc([C@@H]5CCCN5C(=O)[C@@H](NC(=O)OC)C(C)C)[nH]4)c4ccn-3c24)[nH]1)C(C)C`, the EC90 worked out at 90.2 nM in data set [2]; 0.31 nM in [3]; 122 nM in data set [4]; 0.06 nM in data set [5]; 0.69 nM in [6].

As to `COC(=O)N[C@H](C(=O)N1CCC[C@H]1c1ncc(-c2ccc3c(c2)OCn2c-3cc3cc(-c4cnc([C@@H]5CCCN5C(=O)[C@@H](NC(=O)OC)C(C)C)[nH]4)ccc32)[nH]1)C(C)C`, the EC90 is 75.7 nM in [1]; 6.5 nM in data set [2]; 0.18 nM in [3]; more than 100 nM in data set [4]; 0.02 nM in data set [5]; more than 1 nM in [6].

`COC(=O)N[C@H](C(=O)N1CCC[C@H]1c1ncc(-c2cc3c4c(c2)CCc2cc(-c5cnc([C@@H]6CCCN6C(=O)[C@@H](NC(=O)OC)C(C)C)[nH]5)cc(c2-4)CC3)[nH]1)C(C)C`: the EC90 is more than 100 nM in data set [1]; 18.9 nM in data set [2]; 0.8 nM in data set [3]; 57 nM in data set [4]; 0.05 nM in data set [5]; 2 nM in [6].

`COC(=O)N[C@H](C(=O)N1CCC[C@H]1c1ncc(-c2ccc3c(c2)Oc2ccc(-c4cnc([C@@H]5CC(F)(F)CN5C(=O)[C@@H](NC(=O)OC)C(C)C)[nH]4)c4ccn-3c24)[nH]1)C(C)C` registered an AUC in data set [12] of 3.98 µM·h. Also, the bioavailability in [13] was determined as 15%. Moreover, the EC90 in data set [1] was 342 nM; in data set [2], 17.2 nM; in data set [4], 22 nM; in [5], 0.02 nM.

The compound `COC(=O)N[C@H](C(=O)N1CCC[C@H]1c1ncc(-c2ccc3c(c2)OCC2=C3COc3cc(-c4cnc([C@@H]5CCCN5C(=O)[C@@H](NC(=O)OC)C(C)C)[nH]4)ccc32)[nH]1)C(C)C` showed a bioavailability in data set [13] of 14%. In [14], this compound had a clearance of 5.3 mL/min/kg. Further, the EC90 in [1] was 24.7 nM; in [2], 0.33 nM; in data set [3], 0.18 nM; in data set [4] it was more than 100 nM; in data set [5], 0.01 nM; in data set [6], more than 1 nM. This compound also gave a Cmax in data set [15] of 660 nM. The area under the curve (AUC) in data set [16] worked out at 5.57 µM·h. The compound also gave a half-life in data set [17] of 2.7 h.
